20 molecules from patent publication US8426408B2, “Pyrimidine inhibitors of kinases” (AbbVie Inc., priority 2009, dated 2013) can be followed below.

One assay addresses KDR (Homo sapiens, UniProt P35968). Description: KDR HTRF in vitro kinase assay. The format is biochemical. Further details: purified enzyme (His6-KDR 789-1354, MW 63 kD); His6 (N). Conditions: 1 mM ATP; read-out: KDR enzyme inhibition data (Ki). The method, boiled down: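 His6-KDR 789-1354 (7 ng/well) with 0.5 μM biotinylated peptide substrate and 1 mM ATP in HEPES pH 7.1, MgCl2/MnCl2, 60 min at room temperature. EDTA-quenched, detected by streptavidin-XL-665 plus Eu-kryptate anti-phosphotyrosine HTRF after 3 h; IC50 from 620/665 nm ratio.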
In general terms: Time-resolved FRET reads energy transfer from a long-lived donor to a nearby acceptor.

The next assay deals with T1, Aurora A (Homo sapiens, UniProt O14965).
T1 sequence (O14965 1-403): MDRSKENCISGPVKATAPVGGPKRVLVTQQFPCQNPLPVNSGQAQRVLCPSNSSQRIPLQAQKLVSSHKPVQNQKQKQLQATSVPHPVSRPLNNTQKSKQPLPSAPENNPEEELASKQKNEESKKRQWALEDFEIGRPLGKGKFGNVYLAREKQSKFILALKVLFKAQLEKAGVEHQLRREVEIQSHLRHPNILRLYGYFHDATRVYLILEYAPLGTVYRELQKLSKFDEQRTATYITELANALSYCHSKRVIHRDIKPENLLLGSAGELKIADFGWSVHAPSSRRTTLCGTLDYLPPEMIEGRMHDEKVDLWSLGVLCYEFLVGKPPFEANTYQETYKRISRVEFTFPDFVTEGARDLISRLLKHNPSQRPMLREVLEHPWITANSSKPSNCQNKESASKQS
Description: Aurora A enzyme inhibition (time-resolved fluorescence, STK substrate-2). The assay is classed as biochemical. The settings on record: 1 mM ATP. In a few lines:
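Active enzyme incubated 1 h with biotinylated STK substrate-2, 1 mM ATP and inhibitor in Hepes pH 7.4 with MgCl2, orthovanadate and Triton X-100. EDTA stop; phosphopeptide detected by Eu-cryptate anti-phospho-STK/SA-XL665 TR-FRET (665/615 nm ratio); IC50 by exponential fit.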

Sequence of KDR (P35968 789-1354): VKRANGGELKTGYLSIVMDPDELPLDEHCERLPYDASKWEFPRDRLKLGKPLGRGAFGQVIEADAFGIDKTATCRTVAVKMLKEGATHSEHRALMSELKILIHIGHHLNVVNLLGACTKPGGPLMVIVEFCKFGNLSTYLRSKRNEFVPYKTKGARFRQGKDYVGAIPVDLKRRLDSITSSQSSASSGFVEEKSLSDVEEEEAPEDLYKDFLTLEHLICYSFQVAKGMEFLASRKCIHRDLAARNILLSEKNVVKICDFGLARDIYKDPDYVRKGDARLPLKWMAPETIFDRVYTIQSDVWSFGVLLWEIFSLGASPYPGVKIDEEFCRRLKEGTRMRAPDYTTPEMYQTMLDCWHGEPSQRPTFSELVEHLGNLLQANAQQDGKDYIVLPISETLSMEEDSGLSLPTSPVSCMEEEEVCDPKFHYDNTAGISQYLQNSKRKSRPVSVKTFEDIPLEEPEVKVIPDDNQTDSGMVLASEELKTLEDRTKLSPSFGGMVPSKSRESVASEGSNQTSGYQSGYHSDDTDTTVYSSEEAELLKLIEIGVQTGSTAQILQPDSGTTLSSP

By Ki is commonly meant the dissociation constant of the complex between target and ligand, obtained from inhibition or displacement. `CCn1cc(Nc2ncc(Cl)c(N[C@H]3[C@@H](C(N)=O)[C@@H]4C=C[C@H]3C4)n2)cn1` (racemic) [Example 30, (1S,2S,3R,4R)-3-({5-chloro-2-[(1-ethyl-1H-pyrazol-4-yl)amino]pyrimidin-4-yl}amino)bicyclo[2.2.1]hept-5-ene-2-carboxamide and (1R,2R,3S,4S)-3-({5-chloro-2-[(1-ethyl-1H-pyrazol-4-yl)amino]pyrimidin-4-yl}amino)bicyclo[2.2.1]hept-5-ene-2-carboxamide]: the Ki on KDR and on Aurora A was below 100 nM each time.
Turning to `CCn1cc(Nc2ncc(Cl)c(NC3C4CCC(O4)C3C(N)=O)n2)cn1` (racemic) [Example 142, (1S,2R,3S,4R)-3-({5-chloro-2-[(1-ethyl-1H-pyrazol-4-yl)amino]pyrimidin-4-yl}amino)-7-oxabicyclo[2.2.1]heptane-2-carboxamide and (1R,2S,3R,4S)-3-({5-chloro-2-[(1-ethyl-1H-pyrazol-4-yl)amino]pyrimidin-4-yl}amino)-7-oxabicyclo[2.2.1]heptane-2-carboxamide], the Ki on KDR and at Aurora A was below 100 nM each time.
Take `CC(C)NC(=O)C1CCCC1Nc1nc(Nc2cnn(C3CCNCC3)c2)ncc1Cl` (racemic) [Example 163, (1S,2R)-2-[(5-chloro-2-{[1-(piperidin-4-yl)-1H-pyrazol-4-yl]amino}pyrimidin-4-yl)amino]-N-isopropylcyclopentanecarboxamide and (1R,2S)-2-[(5-chloro-2-{[1-(piperidin-4-yl)-1H-pyrazol-4-yl]amino}pyrimidin-4-yl)amino]-N-isopropylcyclopentanecarboxamide]: the Ki on KDR was 100 to 1000 nM; on Aurora A, below 100 nM.
On the same counts, the results for `CNC(=O)Cn1cc(Nc2ncc(Cl)c(N[C@@H]3[C@H]4CC[C@H](C4)[C@@H]3C(N)=O)n2)cn1` [Example 88, (1R,2S,3R,4S)-3-{[5-chloro-2-({1-[2-(methylamino)-2-oxoethyl]-1H-pyrazol-4-yl}amino)pyrimidin-4-yl]amino}bicyclo[2.2.1]heptane-2-carboxamide] are below 100 nM and below 100 nM.
On the same counts, the results for `CN(C)CC(=O)N1CCC(n2cc(Nc3ncc(Cl)c(N[C@H]4[C@@H](C(N)=O)[C@@H]5C=C[C@H]4C5)n3)cn2)CC1` [Example 89, (1S,2S,3R,4R)-3-{[5-chloro-2-({1-[1-(N,N-dimethylglycyl)piperidin-4-yl]-1H-pyrazol-4-yl}amino)pyrimidin-4-yl]amino}bicyclo[2.2.1]hept-5-ene-2-carboxamide] are below 100 nM and below 100 nM.
The matching figures for `CN1CCN(CCn2cc(Nc3ncc(Cl)c(N[C@@H]4[C@H]5CC[C@H](C5)[C@@H]4C(N)=O)n3)cn2)CC1` [Example 90, (1R,2S,3R,4S)-3-{[5-chloro-2-({1-[2-(4-methylpiperazin-1-yl)ethyl]-1H-pyrazol-4-yl}amino)pyrimidin-4-yl]amino}bicyclo[2.2.1]heptane-2-carboxamide]: below 100 nM and below 100 nM.
For the molecule `CN1CCN(CCn2cc(Nc3ncc(Cl)c(N[C@H]4[C@@H](C(N)=O)[C@@H]5C=C[C@H]4C5)n3)cn2)CC1` [Example 91, (1S,2S,3R,4R)-3-{[5-chloro-2-({1-[2-(4-methylpiperazin-1-yl)ethyl]-1H-pyrazol-4-yl}amino)pyrimidin-4-yl]amino}bicyclo[2.2.1]hept-5-ene-2-carboxamide], the Ki on KDR and at Aurora A was below 100 nM each time.
Consider `CC(=O)N1CCC(n2cc(Nc3ncc(Cl)c(N[C@H]4[C@@H](C(N)=O)[C@@H]5C=C[C@H]4C5)n3)cn2)CC1` [Example 92, (1S,2S,3R,4R)-3-[(2-{[1-(1-acetylpiperidin-4-yl)-1H-pyrazol-4-yl]amino}-5-chloropyrimidin-4-yl)amino]bicyclo[2.2.1]hept-5-ene-2-carboxamide], for which the Ki on KDR and on Aurora A was below 100 nM in each case.
As to `NC(=O)[C@H]1[C@@H]2CC[C@@H](C2)[C@H]1Nc1nc(Nc2cnn(CCO)c2)ncc1Cl` [Example 93, (1R,2S,3R,4S)-3-[(5-chloro-2-{[1-(2-hydroxyethyl)-1H-pyrazol-4-yl]amino}pyrimidin-4-yl)amino]bicyclo[2.2.1]heptane-2-carboxamide], the Ki on KDR and at Aurora A was below 100 nM each time.
On to `CN1CCC(Cn2cc(Nc3ncc(Cl)c(N[C@H]4[C@@H](C(N)=O)[C@@H]5C=C[C@H]4C5)n3)cn2)CC1` [Example 97, (1S,2S,3R,4R)-3-{[5-chloro-2-({1-[(1-methylpiperidin-4-yl)methyl]-1H-pyrazol-4-yl}amino)pyrimidin-4-yl]amino}bicyclo[2.2.1]hept-5-ene-2-carboxamide], for which the Ki on KDR and on Aurora A was below 100 nM in each case.
Consider `CC(C)n1cc(Nc2ncc(Cl)c(N[C@H]3[C@@H](C(N)=O)[C@@H]4C=C[C@H]3C4)n2)cn1` [Example 98, (1S,2S,3R,4R)-3-({5-chloro-2-[(1-isopropyl-1H-pyrazol-4-yl)amino]pyrimidin-4-yl}amino)bicyclo[2.2.1]hept-5-ene-2-carboxamide], for which the Ki on KDR and on Aurora A was below 100 nM each time.
`CC(C)CCn1cc(Nc2ncc(Cl)c(N[C@H]3[C@@H](C(N)=O)[C@@H]4C=C[C@H]3C4)n2)cn1` [Example 99, (1S,2S,3R,4R)-3-[(5-chloro-2-[1-(3-methylbutyl)-1H-pyrazol-4-yl]aminopyrimidin-4-yl)amino]bicyclo[2.2.1]hept-5-ene-2-carboxamide]: the inhibition constant (Ki) on KDR and on Aurora A was below 100 nM throughout.
Turning to `COCCOCCn1cc(Nc2ncc(Cl)c(N[C@H]3[C@@H](C(N)=O)[C@@H]4C=C[C@H]3C4)n2)cn1` [Example 100, (1S,2S,3R,4R)-3-{[5-chloro-2-({1-[2-(2-methoxyethoxy)ethyl]-1H-pyrazol-4-yl}amino)pyrimidin-4-yl]amino}bicyclo[2.2.1]hept-5-ene-2-carboxamide], the Ki at KDR and at Aurora A was below 100 nM in each case.
For the molecule `Cn1cc(Nc2ncc(Cl)c(Nc3ccccc3C3(O)CCC3)n2)cn1` [Example 101, 1-[2-({5-chloro-2-[(1-methyl-1H-pyrazol-4-yl)amino]pyrimidin-4-yl}amino)phenyl]cyclobutanol], the Ki at KDR and at Aurora A was below 100 nM each time.
As to `NC(=O)[C@@H]1[C@H](Nc2nc(Nc3cnn(C[C@H]4CCCN4)c3)ncc2Cl)[C@H]2C=C[C@@H]1C2` [Example 102, (1S,2S,3R,4R)-3-{[5-chloro-2-({1-[(2R)-pyrrolidin-2-ylmethyl]-1H-pyrazol-4-yl}amino)pyrimidin-4-yl]amino}bicyclo[2.2.1]hept-5-ene-2-carboxamide], the Ki on KDR and at Aurora A was below 100 nM throughout.
In the case of `NC(=O)[C@@H]1[C@H](Nc2nc(Nc3cnn(CC(=O)O)c3)ncc2Cl)[C@H]2C=C[C@@H]1C2` [Example 103, {4-[(4-{[(1R,2R,3S,4S)-3-carbamoylbicyclo[2.2.1]hept-5-ene-2-yl]amino}-5-chloropyrimidin-2-yl)amino]-1H-pyrazol-1-yl}acetic acid], the Ki on KDR and at Aurora A was below 100 nM throughout.
For `C[C@@H](O)Cn1cc(Nc2ncc(Cl)c(N[C@@H]3[C@H]4CC[C@H](C4)[C@@H]3C(N)=O)n2)cn1` [Example 104, (1R,2S,3R,4S)-3-{[5-chloro-2-({1-[(2R)-2-hydroxypropyl]-1H-pyrazol-4-yl}amino)pyrimidin-4-yl]amino}bicyclo[2.2.1]heptane-2-carboxamide], the Ki at KDR and on Aurora A was below 100 nM throughout.
As to `C[C@@H](O)Cn1cc(Nc2ncc(Cl)c(N[C@H]3[C@@H](C(N)=O)[C@@H]4C=C[C@H]3C4)n2)cn1` [Example 105, (1S,2S,3R,4R)-3-{[5-chloro-2-({1-[(2R)-2-hydroxypropyl]-1H-pyrazol-4-yl}amino)pyrimidin-4-yl]amino}bicyclo[2.2.1]hept-5-ene-2-carboxamide], the Ki on KDR and on Aurora A was below 100 nM in each case.
`COCCn1cc(Nc2ncc(Br)c(N[C@H]3[C@@H](C(N)=O)[C@@H]4C=C[C@H]3C4)n2)cn1` [Example 106, (1S,2S,3R,4R)-3-[(5-bromo-2-{[1-(2-methoxyethyl)-1H-pyrazol-4-yl]amino}pyrimidin-4-yl)amino]bicyclo[2.2.1]hept-5-ene-2-carboxamide]: the Ki at KDR and at Aurora A was below 100 nM throughout.
`NC(=O)[C@@H]1[C@H](Nc2nc(Nc3cnn([C@@H]4CCOC4)c3)ncc2Cl)[C@H]2C=C[C@@H]1C2` [Example 107, (1S,2S,3R,4R)-3-{[5-chloro-2-({1-[(3R)-tetrahydrofuran-3-yl]-1H-pyrazol-4-yl}amino)pyrimidin-4-yl]amino}bicyclo[2.2.1]hept-5-ene-2-carboxamide]: the Ki on KDR and at Aurora A was below 100 nM each time.
